Patent US6793925B2 (priority 1999, dated 2004)
Converted amounts (≈) assume the structure as drawn. Bridge positions count the residues as written; N and C are the ends. Square brackets hold non-standard residues; d marks the D form. Peptide text beside a SMILES is read from it. * marks the point of attachment. Asp(3S-OH) = N[C@H](C(=O)O)[C@H](O)C(=O)O; Thr(4-Cl) = N[C@H](C(=O)O)[C@H](O)CCl; X1 = CCCCCCCCCCCC(O)C(O)CC(=O)*; aThr = C[C@H](O)[C@H](N)C(=O)O; X2 = CCCCCCCCCC(O)CC(=O)*; dDab = NCC[C@@H](N)C(=O)O; Dab = NCC[C@H](N)C(=O)O; Dhb = C/C=C(\N)C(=O)O

What was measured:
Format in all cases: cell-based
Settings in all cases: complete inhibition of growth, Sabourauds and dextrose broth, 35° C., 48 hr, highest concentration 20 μg/ml
[1] = system: Aspergillus fumigatus; assay: microtiter broth dilution antifungal assay (MIC)
Procedure: (§1) The presence or amount of a pseudomycin or mixture of pseudomycins can be determined by measuring the antifungal activity of a preparation. Antifungal activity was determined in vitro by obtaining the minimum inhibitory concentration (MIC) of the preparation using a standard agar dilution test or a disc-diffusion test. A preparation of one or more pseudomycins can be an extract of a cell culture, or a more purified mixture. A typical fungus employed in testing antifungal activity is C. albicans. Antifungal activity was considered significant when the test preparation caused 10-12 mm diameter zones of inhibition on Candida albicans x657 seeded agar plates.
(§2) The antifungal studies were conducted using a microtiter broth dilution assay according to National Committee for Clinical Laboratory Standards guidelines in 96 well microtiter plates. Sabourauds and dextrose broth was adjusted to contain 2.5×10^4 conida/ml. Test compound was dissolved in water and tested in two-fold dilutions starting with the highest concentration of 20 μg/ml. Plates were incubated at 35° C. for 48 hr.

[2] = system: C. parapsilosis; assay: microtiter broth dilution antifungal assay (MIC)
Procedure: as §1, §2

[3] = system: Cryptococcus neoformans; assay: microtiter broth dilution antifungal assay (MIC)
Procedure: as §1, §2

[4] = system: Candida albicans; assay: microtiter broth dilution antifungal assay (MIC)
Procedure: as §1, §2

[5] = system: Histoplasma capsulatum

Row | Compound | MIC [1] [µg/mL] | MIC [2] [µg/mL] | MIC [3] [µg/mL] | MIC [4] [µg/mL] | MIC [5]
1 | C/C=C1\NC(=O)[C@H]([C@H](C)O)NC(=O)[C@H](CCN)NC(=O)[C@H](CCCCN)NC(=O)[C@H](CC(=O)O)NC(=O)[C@@H](CCN)NC(=O)[C@@H](NC(=O)CC(O)C(O)CCCCCCCCCCC)COC(=O)[C@H]([C@H](O)CCl)NC(=O)[C@H]([C@H](O)C(=O)O)NC1=O (stereo partly drawn) [Pseudomycin A′, pseudomycin A′] (X1-S[dDab]DK[Dab][aThr][Dhb][Asp(3S-OH)][Thr(4-Cl)]; ester 1-C) | >20 | 5.0 (≈ 4.04 µM) | 1.25 (≈ 1.01 µM) | 2.5 (≈ 2.02 µM) | 5.0 µg/mL (≈ 4.04 µM)
2 | C/C=C1\NC(=O)[C@H]([C@H](C)O)NC(=O)[C@H](CCN)NC(=O)[C@H](CCCCN)NC(=O)[C@H](CC(=O)O)NC(=O)[C@@H](CCN)NC(=O)[C@@H](NC(=O)CC(O)CCCCCCCCC)COC(=O)[C@H]([C@H](O)CCl)NC(=O)[C@H]([C@H](O)C(=O)O)NC1=O (stereo partly drawn) [Pseudomycin B′, pseudomycin B′] (X2-S[dDab]DK[Dab][aThr][Dhb][Asp(3S-OH)][Thr(4-Cl)]; ester 1-C) | >20 | 10 (≈ 8.48 µM) | 1.25 (≈ 1.06 µM) | 10 (≈ 8.48 µM) | 1.25-5.0 μ/ml
